Measured values reported in patent US20230079045A1 (priority 2019, published 2023).
Read-outs that look alike come from different tables or passages of the source.

Legend:
IFVA/Mal/302/54 = experiment: cytopathic effect (CPE) antiviral test in MDCK cells, IFVA/Mal/302/54; type: cell-based, influenza virus; details: unidentified influenza virus, MDCK, 120 h, read-out: EC50(IFVA/Mal/302/54), MDCK cells, CPE method, CCK-8 cell viability, 5 days
IFVA/Weiss/43 = experiment: cytopathic effect (CPE) antiviral test in MDCK cells, IFVA/Weiss/43; type: cell-based, influenza virus
[1] = unidentified influenza virus, MDCK, 120 h, read-out: EC50(IFVA/Weiss/43), MDCK cells, CPE method, CCK-8 cell viability, 5 days

Compound: CC(=O)Nc1ccc2oc(-c3ccnc(C(=O)N4C5CCC4CN(C(c4ccccc4)c4nnn(C(F)F)n4)C5)c3)nc2c1 (stereo not drawn) [Compound 17, N-(2-(2-(3-((2-(difluoromethyl)-2H-tetrazol-5-yl)(phenyl)methyl)-3,8-diazabicyclo[3.2.1]octane-8-carbonyl)pyridin-4-yl)benzo[d]oxazol-5-yl)acetamide]
- EC50 (IFVA/Mal/302/54): 0.022 µM
- EC50 (IFVA/Weiss/43; [1]): 0.009 µM

Compound: CC(=O)Nc1ccc2oc(-c3ccnc(C(=O)N4C5CCC4CN(C(c4ccccc4)c4nnnn4C(F)F)C5)c3)nc2c1 (stereo not drawn) [Compound 18, N-(2-(2-(3-((1-(difluoromethyl)-1H-tetrazol-5-yl)(phenyl)methyl)-3,8-diazabicyclo[3.2.1]octane-8-carbonyl)pyridin-4-yl)benzo[d]oxazol-5-yl)acetamide]
- EC50 (IFVA/Mal/302/54): 0.177 µM
- EC50 (IFVA/Weiss/43; [1]): 0.422 µM

Compound: Cn1nnc(C(c2ccccc2)N2C[C@H]3CC[C@@H](C2)N3C(=O)c2cc(-c3nc4cc(N5CCCC5=O)ccc4o3)ccn2)n1 (stereo partly drawn) [Compound 19, 1-(2-(2-((1R,5S)-3-((2-methyl-2H-tetrazol-5-yl)(phenyl)methyl)-3,8-diazabicyclo[3.2.1]octane-8-carbonyl)pyridin-4-yl)benzo[d]oxazol-5-yl)pyrrolidin-2-one]
- EC50 (IFVA/Mal/302/54): 0.019 µM
- EC50 (IFVA/Weiss/43; [1]): 0.023 µM

Compound: CC(=O)Nc1ccc2oc(-c3ccnc(C(=O)N4C5CC4CN(C(c4ccccc4)c4nnn(C)n4)C5)c3)nc2c1 (stereo not drawn) [Compound 20, N-(2-(2-(3-((2-methyl-2H-tetrazol-5-yl)(phenyl)methyl)-3,6-diazabicyclo[3.1.1]heptane-6-carbonyl)pyridin-4-yl)benzo[d]oxazol-5-yl)acetamide]
- EC50 (IFVA/Mal/302/54): 0.919 µM
- EC50 (IFVA/Weiss/43; [1]): 0.545 µM

Compound: Cn1nnc(C(c2ccccc2)N2CC3CC(C2)N3C(=O)c2cc(-c3nc4cc(NC(=O)C5CC5)ccc4o3)ccn2)n1 (stereo not drawn) [Compound 21, N-(2-(2-(3-((2-methyl-2H-tetrazol-5-yl)(phenyl)methyl)-3,6-diazabicyclo[3.1.1]heptane-6-carbonyl)pyridin-4-yl)benzo[d]oxazol-5-yl)cyclopropanecarboxamide]
- EC50 (IFVA/Mal/302/54): 0.436 µM
- EC50 (IFVA/Weiss/43; [1]): 0.163 µM

Compound: CC(=O)Nc1ccc2oc(-c3ccnc(C(=O)N4C5CCC4CN(C(c4ccccc4)c4nnn(CCF)n4)C5)c3)nc2c1 (stereo not drawn) [Compound 22, N-(2-(2-(3-((2-(2-fluoroethyl)-2H-tetrazol-5-yl)(phenyl)methyl)-3,8-diazabicyclo[3.2.1]octane-8-carbonyl)pyridin-4-yl)benzo[d]oxazol-5-yl)acetamide]
- EC50 (IFVA/Mal/302/54): 0.033 µM
- EC50 (IFVA/Weiss/43; [1]): 0.025 µM

Compound: CC(=O)Nc1ccc2oc(-c3ccnc(C(=O)N4CC5CC(C4)N5C(c4ccccc4)c4nnn(C)n4)c3)nc2c1 (stereo not drawn) [Compound 23, N-(2-(2-(6-((2-methyl-2H-tetrazol-5-yl)(phenyl)methyl)-3,6-diazabicyclo[3.1.1]heptane-3-carbonyl)pyridin-4-yl)benzo[d]oxazol-5-yl)acetamide]
- EC50 (IFVA/Mal/302/54): > 10 µM
- EC50 (IFVA/Weiss/43; [1]): > 10 µM

Compound: Cn1nnc(C(c2ccccc2)N2CCN(C(=O)c3cc(-c4nc5cc(NC(=O)[C@@H]6CC6(F)F)ccc5o4)ccn3)CC2)n1 (stereo partly drawn) [Compound 24, (1S)-2,2-difluoro-N-(2-(2-(4-((2-methyl-2H-tetrazol-5-yl)(phenyl)methyl)piperazine-1-carbonyl)pyridin-4-yl)benzo[d]oxazol-5-yl)cyclopropane-1-carboxamide]
- EC50 (IFVA/Mal/302/54): 0.032 µM
- EC50 (IFVA/Weiss/43; [1]): 0.012 µM

Compound: Cn1nnc(C(c2ccccc2)N2CCN(C(=O)c3cc(-c4nc5cc(NC(=O)[C@@H]6C[C@H]6F)ccc5o4)ccn3)CC2)n1 (stereo partly drawn) [Compound 25, (1S,2R)-2-fluoro-N-(2-(2-(4-((2-methyl-2H-tetrazol-5-yl)(phenyl)methyl)piperazine-1-carbonyl)pyridin-4-yl)benzo[d]oxazol-5-yl)cyclopropane-1-carboxamide]
- EC50 (IFVA/Mal/302/54): 0.068 µM
- EC50 (IFVA/Weiss/43; [1]): 0.06 µM

Compound: Cn1nnc(C(c2ccccc2)N2CCN(C(=O)c3cc(-c4nc5cc(NC(=O)[C@@H]6C[C@@H]6F)ccc5o4)ccn3)CC2)n1 (stereo partly drawn) [Compound 26, (1S,2S)-2-fluoro-N-(2-(2-(4-((2-methyl-2H-tetrazol-5-yl)(phenyl)methyl)piperazine-1-carbonyl)pyridin-4-yl)benzo[d]oxazol-5-yl)cyclopropane-1-carboxamide]
- EC50 (IFVA/Mal/302/54): 0.02 µM
- EC50 (IFVA/Weiss/43; [1]): 0.003 µM

Compound: Cn1nnc(C(c2ccccc2)N2CCN(C(=O)c3cc(-c4nc5cc(NC(=O)[C@H]6C[C@@H]6F)ccc5o4)ccn3)CC2)n1 (stereo partly drawn) [Compound 27, (1R,2S)-2-fluoro-N-(2-(2-(4-((2-methyl-2H-tetrazol-5-yl)(phenyl)methyl)piperazine-1-carbonyl)pyridin-4-yl)benzo[d]oxazol-5-yl)cyclopropane-1-carboxamide]
- EC50 (IFVA/Mal/302/54): 0.127 µM
- EC50 (IFVA/Weiss/43; [1]): 0.033 µM

Compound: Cn1nnc(C(c2ccccc2)N2CCN(C(=O)c3cc(-c4nc5cc(NC(=O)[C@H]6C[C@H]6F)ccc5o4)ccn3)CC2)n1 (stereo partly drawn) [Compound 28, (1R,2R)-2-fluoro-N-(2-(2-(4-((2-methyl-2H-tetrazol-5-yl)(phenyl)methyl)piperazine-1-carbonyl)pyridin-4-yl)benzo[d]oxazol-5-yl)cyclopropane-1-carboxamide]
- EC50 (IFVA/Mal/302/54): 0.027 µM
- EC50 (IFVA/Weiss/43; [1]): 0.017 µM

Compound: O=C(Nc1ccc2oc(-c3ccnc(C(=O)N4CCN(C(c5ccccc5)c5nnn(C(F)F)n5)CC4)c3)nc2c1)[C@@H]1C[C@H]1F (stereo partly drawn) [Compound 30, (1S,2R)-2-fluoro-N-(2-(2-(4-((2-difluoromethyl-2H-tetrazol-5-yl)(phenyl)methyl)piperazine-1-carbonyl)pyridin-4-yl)benzo[d]oxazol-5-yl)cyclopropane-1-carboxamide]
- EC50 (IFVA/Mal/302/54): 0.027 µM
- EC50 (IFVA/Weiss/43; [1]): 0.012 µM

Compound: O=C(Nc1ccc2oc(-c3ccnc(C(=O)N4CCN(C(c5ccccc5)c5nnn(C(F)F)n5)CC4)c3)nc2c1)[C@H]1C[C@@H]1F (stereo partly drawn) [Compound 32, (1R,2S)-2-fluoro-N-(2-(2-(4-((2-difluoromethyl-2H-tetrazol-5-yl)(phenyl)methyl)piperazine-1-carbonyl)pyridin-4-yl)benzo[d]oxazol-5-yl)cyclopropane-1-carboxamide]
- EC50 (IFVA/Mal/302/54): 0.003 µM
- EC50 (IFVA/Weiss/43; [1]): 0.026 µM

Compound: O=C(Nc1ccc2oc(-c3ccnc(C(=O)N4CCN(C(c5ccccc5)c5nnn(C(F)F)n5)CC4)c3)nc2c1)[C@H]1C[C@H]1F (stereo partly drawn) [Compound 33, (1R,2R)-2-fluoro-N-(2-(2-(4-((2-difluoromethyl-2H-tetrazol-5-yl)(phenyl)methyl)piperazine-1-carbonyl)pyridin-4-yl)benzo[d]oxazol-5-yl)cyclopropane-1-carboxamide]
- EC50 (IFVA/Mal/302/54): 0.031 µM
- EC50 (IFVA/Weiss/43; [1]): 0.016 µM

Compound: CS(=O)(=O)Nc1ccc2oc(-c3ccnc(C(=O)N4CCN(C(c5ccccc5)c5nnn(C(F)F)n5)CC4)c3)nc2c1 (stereo not drawn) [Compound 34]
- EC50 (IFVA/Mal/302/54): > 10 µM
- EC50 (IFVA/Weiss/43; [1]): > 10 µM

Compound: Cn1nnc(C(c2ccccc2)N2CCN(C(=O)c3cc(-c4nc5cc(NC(=O)C6CC6)ccc5o4)ccn3)CC2)n1 (stereo not drawn) [Compound 35, N-(2-(2-(4-((2-methyl-2H-tetrazol-5-yl)(phenyl)methyl)piperazine-1-carbonyl)pyridin-4-yl)benzo[d]oxazol-5-yl)cyclopropanecarboxamide]
- EC50 (IFVA/Mal/302/54): 0.019 µM
- EC50 (IFVA/Weiss/43; [1]): 0.012 µM

Compound: O=C(c1cc(-c2nc3cc(N4CCCC4=O)ccc3o2)ccn1)N1CCN(C(c2ccccc2)c2nnn(C(F)F)n2)CC1 (stereo not drawn) [Compound 37, 1-(2-(2-(4-((2-(difluoromethyl)-2H-tetrazol-5-yl)(phenyl)methyl)piperazine-1-carbonyl)pyridin-4-yl)benzo[d]oxazol-5-yl)pyrrolidin-2-one]
- EC50 (IFVA/Mal/302/54): 0.022 µM
- EC50 (IFVA/Weiss/43; [1]): 0.017 µM

Compound: Cn1nnc(C(c2ccccc2)N2CCN(C(=O)c3cc(-c4nc5cc(O[C@H]6CCOC6)ccc5o4)ccn3)CC2)n1 (stereo partly drawn) [Compound 38, (4-((2-methyl-2H-tetrazol-5-yl)(phenyl)methyl)piperazin-1-yl)(4-(5-(((S)-tetrahydrofuran-3-yl)oxy)benzo[d]oxazol-2-yl)pyridin-2-yl)methanone]
- EC50 (IFVA/Mal/302/54): 0.018 µM
- EC50 (IFVA/Weiss/43; read-out: EC50(IFVA/Weiss/43), MDCK cells, CPE method, CCK-8 cell viability, 5 days): 0.02 µM

Compound: O=C(c1cc(-c2nc3cc(O[C@H]4CCOC4)ccc3o2)ccn1)N1CCN(C(c2ccccc2)c2nnn(C(F)F)n2)CC1 (stereo partly drawn) [Compound 39, (4-((2-(difluoromethyl)-2H-tetrazol-5-yl)(phenyl)methyl)piperazin-1-yl)(4-(5-(((S)-tetrahydrofuran-3-yl)oxy)benzo[d]oxazol-2-yl)pyridin-2-yl)methanone]
- EC50 (IFVA/Mal/302/54): 0.011 µM
- EC50 (IFVA/Weiss/43; [1]): 0.004 µM

Compound: CC(=O)Nc1ccc2oc(-c3ccnc(C(=O)N4CCN(C(c5ccccc5)c5nnn(C(F)F)n5)CC4)c3)nc2c1 (stereo not drawn) [Compound 40, N-(2-(2-(4-((2-(difluoromethyl)-2H-tetrazol-5-yl)(phenyl)methyl)piperazine-1-carbonyl)pyridin-4-yl)benzo[d]oxazol-5-yl)acetamide]
- EC50 (IFVA/Mal/302/54): 0.024 µM
- EC50 (IFVA/Weiss/43; [1]): 0.016 µM

Compound: Cn1nnc(C(c2ccccc2)N2CCN(C(=O)c3cc(-c4nc5cc(OC(F)F)ccc5o4)ccn3)CC2)n1 (stereo not drawn) [Compound 44, (4-(5-(difluoromethoxy)benzo[d]oxazol-2-yl)pyridin-2-yl)(4-((2-methyl-2H-tetrazol-5-yl)(phenyl)methyl)piperazin-1-yl)methanone]
- EC50 (IFVA/Mal/302/54): 0.065 µM
- EC50 (IFVA/Weiss/43; [1]): 0.11 µM

Compound: CC(=O)Nc1ccc2oc(-c3ccnc(C(=O)N4CCC(O)(C(c5ccccc5)c5nnn(C)n5)CC4)c3)nc2c1 (stereo not drawn) [Compound 47, N-(2-(2-(4-hydroxy-4-((2-methyl-2H-tetrazol-5-yl)(phenyl)methyl)piperidine-1-carbonyl)pyridin-4-yl)benzo[d]oxazol-5-yl)acetamide]
- EC50 (IFVA/Mal/302/54): 0.081 µM
- EC50 (IFVA/Weiss/43; [1]): 0.035 µM

Compound: CC(=O)Nc1ccc2oc(-c3ccnc(C(=O)N4CCC(=C(c5ccccc5)c5nnn(C)n5)CC4)c3)nc2c1 [Compound 49, N-(2-(2-(4-((2-methyl-2H-tetrazol-5-yl)(phenyl)methylene)piperidine-1-carbonyl)pyridin-4-yl)benzo[d]oxazol-5-yl)acetamide]
- EC50 (IFVA/Mal/302/54): 0.18 µM
- EC50 (IFVA/Weiss/43; [1]): 0.112 µM
